From paper PMC10126264, “Synergistic effect and antibiofilm activity of the antimicrobial peptide K11 with conventional antibiotics against multidrug-resistant and extensively drug-resistant Klebsiella pneumoniae” (Frontiers in Cellular and Infection Microbiology, 2023)
In brackets after ≈: the same amount, converted by molar mass. Where two headings read alike, the source gives them in different places. Residues, ends and D or L forms follow the SMILES beside them.

Key:
[1] = system: MDR/XDR K. pneumoniae clinical isolates; experiment: microbe, parasite or virus in culture; conditions: for MIC: broth microdilution in CAMHB, 20-24 h at 37°C; for MBC: wells with no visible growth plated on MHA, 37°C, kills at least 99.9% of inoculum
Method: The ability of K11 to inhibit bacterial growth was determined by the broth microdilution method ([Clinical and Laboratory Standards Institute, 2018]). Briefly, a series of 2-fold dilutions of K11 were prepared from 1,024 to 2 µg/mL in cation-adjusted Mueller-Hinton broth (CAMHB), Then 50 µL of each peptide dilution was added to each well of polystyrene 96-well U-bottom microplates. The log-phase cultures were adjusted to 0.5 McFarland standard and diluted 1:100 in CAMHB to provide the density of 10^6 CFU/mL. Consequently, 50 µL of diluted bacterial suspension was added to wells containing 50 µL of peptide solution, followed by incubation for 20-24 h at 37°C. […] To evaluate MBC, a volume of 10 μL was taken from each well with no visible growth, inoculated on Mueller-Hinton agar (MHA) plates, and incubated at 37°C. The MBC was defined as the lowest concentration of antimicrobials that killed at least 99.9% of the initial inoculums ([Clinical and Laboratory Standards Institute, 1999]).

K. pneumoniae ATCC 70063 = system: K. pneumoniae ATCC 70063
Method: The effects of various cations and serum on the antimicrobial activity of K11 were investigated against K. pneumoniae ATCC 70063 and K. pneumoniae ATCC BAA-1706 by the MIC assay, as described above. […] Subsequently, serially 2-fold diluted K11 solutions were prepared in CAMHB, and aliquots of each peptide solution were added to a 96-well plate. An equal volume of bacterial suspension was added, and the mixtures were incubated at 37°C for 20-24 h ([Ko et al., 2019]). For serum stability, 2 mg/mL of K11 was prepared in solution with 25% and 50% FBS and incubated for 1 h at 37°C, then heat […] for 30 min at 60°C. A series of 2-fold dilutions of K11 were performed in CAMHB and transferred to a 96-well plate. The diluted bacterial suspension was added to the well, and mixtures were incubated for 20-24 h at 37°C ([Oliva et al., 2018]). The antimicrobial activity was determined by measuring the MICs.

[2] = system: K. pneumoniae ATCC BAA-1706
Method: The effects of various cations and serum on the antimicrobial activity of K11 were investigated against K. pneumoniae ATCC 70063 and K. pneumoniae ATCC BAA-1706 by the MIC assay, as described above. For salt stability, 2 mg/mL of K11 was dissolved in solutions containing different salts at their physiological concentrations; NaCl (100, 150, and 200 mM), MgCl2 (0.5, 1 and 2 mM), and FeCl3 (1, 4, and 8 mM), then incubated for 1 h at 37°C. Subsequently, serially 2-fold diluted K11 solutions were prepared in CAMHB, and aliquots of each peptide solution were added to a 96-well plate. An equal volume of bacterial suspension was added, and the mixtures were incubated at 37°C for 20-24 h ([Ko et al., 2019]). […] The antimicrobial activity was determined by measuring the MICs.

[3] = system: K. pneumoniae reference strains; experiment: MIC determination, broth microdilution; assay type: cell-based, Klebsiella pneumoniae; conditions: K. pneumoniae reference strains (ATCC BAA-1706, ATCC 70063)
[4] = MDR/XDR K. pneumoniae clinical isolates
[5] = K11 2 mg/mL in FeCl3 1 µM, 1 h at 37°C, then MIC in CAMHB
[6] = K11 2 mg/mL in FeCl3 4 µM, 1 h at 37°C, then MIC in CAMHB
[7] = K11 2 mg/mL in FeCl3 8 µM, 1 h at 37°C, then MIC in CAMHB
[8] = K11 2 mg/mL in MgCl2 0.5 mM, 1 h at 37°C, then MIC in CAMHB
[9] = K11 2 mg/mL in MgCl2 1 mM, 1 h at 37°C, then MIC in CAMHB
[10] = K11 2 mg/mL in MgCl2 2 mM, 1 h at 37°C, then MIC in CAMHB
[11] = K11 2 mg/mL in NaCl 100 mM, 1 h at 37°C, then MIC in CAMHB
[12] = K11 2 mg/mL in NaCl 200 mM, 1 h at 37°C, then MIC in CAMHB

In the case of `CC[C@H](C)[C@H](NC(=O)[C@H](Cc1ccccc1)NC(=O)[C@H](CO)NC(=O)[C@H](CCCCN)NC(=O)[C@H](Cc1c[nH]c2ccccc12)NC(=O)[C@@H](N)CCCCN)C(=O)N[C@@H](CCCCN)C(=O)N[C@@H](CCCCN)C(=O)N[C@@H](CC(C)C)C(=O)N[C@H](C(=O)N[C@@H](CCCCN)C(=O)N[C@@H](CCCCN)C(=O)N[C@@H](Cc1ccccc1)C(=O)N[C@@H](CC(C)C)C(=O)N[C@@H](Cc1c[nH]cn1)C(=O)N[C@@H](CO)C(=O)N[C@@H](C)C(=O)N[C@@H](CCCCN)C(=O)N[C@@H](CCCCN)C(=O)N[C@@H](Cc1ccccc1)C(N)=O)[C@@H](C)O` [K11] (H-KWKSFIKKLTKKFLHSAKKF-NH2), the MIC ([1]; KP-01) is reported as 8 µg/mL (≈ 3.21 µM), the MBC ([1]; KP-01) is reported as 8 µg/mL (≈ 3.21 µM) and the MIC ([1]; KP-02) is reported as 64 µg/mL (≈ 25.7 µM). The MBC ([1]; KP-02) was 64 µg/mL (≈ 25.7 µM), the MIC ([1]; KP-03) was 16 µg/mL (≈ 6.42 µM) and the MBC ([1]; KP-03) was 16 µg/mL (≈ 6.42 µM). For the same compound, the MIC ([1]; KP-04) was 64 µg/mL (≈ 25.7 µM), the MBC ([1]; KP-04) was 128 µg/mL (≈ 51.3 µM) and the MIC ([1]; KP-05) was 8 µg/mL (≈ 3.21 µM). It also gave an MBC ([1]; KP-05) of 8 µg/mL (≈ 3.21 µM), an MIC ([1]; KP-06) of 64 µg/mL (≈ 25.7 µM) and an MBC ([1]; KP-06) of 128 µg/mL (≈ 51.3 µM). The MIC ([1]; KP-07) was 16 µg/mL (≈ 6.42 µM), the MBC ([1]; KP-07) was 16 µg/mL (≈ 6.42 µM) and the MIC ([1]; KP-08) was 64 µg/mL (≈ 25.7 µM). It also gave an MBC ([1]; KP-08) of 128 µg/mL (≈ 51.3 µM), an MIC ([1]; KP-09) of 64 µg/mL (≈ 25.7 µM) and an MBC ([1]; KP-09) of 128 µg/mL (≈ 51.3 µM). It also gave an MIC ([1]; KP-10) of 64 µg/mL (≈ 25.7 µM), an MBC ([1]; KP-10) of 128 µg/mL (≈ 51.3 µM) and an MIC ([1]; KP-11) of 64 µg/mL (≈ 25.7 µM). It also gave an MBC ([1]; KP-11) of 64 µg/mL (≈ 25.7 µM), an MIC ([1]; KP-12) of 64 µg/mL (≈ 25.7 µM) and an MBC ([1]; KP-12) of 64 µg/mL (≈ 25.7 µM). It also gave an MIC ([1]; KP-13) of 32 µg/mL (≈ 12.8 µM), an MBC ([1]; KP-13) of 32 µg/mL (≈ 12.8 µM) and an MIC ([1]; KP-14) of 256 µg/mL (≈ 103 µM). The MBC ([1]; KP-14) was 256 µg/mL (≈ 103 µM), the MIC ([1]; KP-15) was 512 µg/mL (≈ 205 µM) and the MBC ([1]; KP-15) was 512 µg/mL (≈ 205 µM). The MIC50 [1, 4] was 64 µg/mL (≈ 25.7 µM), the MIC90 [1, 4] was 256 µg/mL (≈ 103 µM) and the “Antimicrobial activity MIC” value (K. pneumoniae ATCC 70063; Control, salt concentration 0) was 4 µg/mL. For the same compound, the “Antimicrobial activity MIC” value (K. pneumoniae ATCC 70063; [5]) was 4 µg/mL, the “Antimicrobial activity MIC” value (K. pneumoniae ATCC 70063; [6]) was 4 µg/mL and the “Antimicrobial activity MIC” value (K. pneumoniae ATCC 70063; [7]) was 4 µg/mL. The “Antimicrobial activity MIC” value (K. pneumoniae ATCC 70063; [8]) was 4 µg/mL, the “Antimicrobial activity MIC” value (K. pneumoniae ATCC 70063; [9]) was 4 µg/mL and the “Antimicrobial activity MIC” value (K. pneumoniae ATCC 70063; [10]) was 8 µg/mL. For the same compound, the “Antimicrobial activity MIC” value (K. pneumoniae ATCC 70063; [11]) was 4 µg/mL, the “Antimicrobial activity MIC” value (K. pneumoniae ATCC 70063; K11 2 mg/mL in NaCl 150 mM, 1 h at 37°C, then MIC in CAMHB) was 4 µg/mL and the “Antimicrobial activity MIC” value (K. pneumoniae ATCC 70063; [12]) was 4 µg/mL. The “Antimicrobial activity MIC” value ([2]; Control, salt concentration 0) was 2 µg/mL, the “Antimicrobial activity MIC” value [2, 5] was 2 µg/mL and the “Antimicrobial activity MIC” value [2, 6] was 2 µg/mL. The “Antimicrobial activity MIC” value [2, 7] was 2 µg/mL, the “Antimicrobial activity MIC” value [2, 8] was 2 µg/mL and the “Antimicrobial activity MIC” value [2, 9] was 2 µg/mL. For the same compound, the “Antimicrobial activity MIC” value [2, 10] was 2 µg/mL, the “Antimicrobial activity MIC” value [2, 11] was 2 µg/mL and the “Antimicrobial activity MIC” value ([2]; K11 2 mg/mL in NaCl 150mM, 1 h at 37°C, then MIC in CAMHB) was 4 µg/mL. For the same compound, the “Antimicrobial activity MIC” value [2, 12] was 4 µg/mL and the “MIC, range over strains” value [3] was 2 to 4 µg/mL.
